This note sets out measurements from ChEMBL document CHEMBL3627608, “Crystal structures of human RIP2 kinase catalytic domain complexed with ATP-competitive inhibitors: Foundations for understanding inhibitor selectivity” (Bioorg Med Chem, 2015).

In experiment [1] the target is T1, Ephrin type-B receptor 2 (Homo sapiens) (UniProt P29323).
T1 sequence (whole entry): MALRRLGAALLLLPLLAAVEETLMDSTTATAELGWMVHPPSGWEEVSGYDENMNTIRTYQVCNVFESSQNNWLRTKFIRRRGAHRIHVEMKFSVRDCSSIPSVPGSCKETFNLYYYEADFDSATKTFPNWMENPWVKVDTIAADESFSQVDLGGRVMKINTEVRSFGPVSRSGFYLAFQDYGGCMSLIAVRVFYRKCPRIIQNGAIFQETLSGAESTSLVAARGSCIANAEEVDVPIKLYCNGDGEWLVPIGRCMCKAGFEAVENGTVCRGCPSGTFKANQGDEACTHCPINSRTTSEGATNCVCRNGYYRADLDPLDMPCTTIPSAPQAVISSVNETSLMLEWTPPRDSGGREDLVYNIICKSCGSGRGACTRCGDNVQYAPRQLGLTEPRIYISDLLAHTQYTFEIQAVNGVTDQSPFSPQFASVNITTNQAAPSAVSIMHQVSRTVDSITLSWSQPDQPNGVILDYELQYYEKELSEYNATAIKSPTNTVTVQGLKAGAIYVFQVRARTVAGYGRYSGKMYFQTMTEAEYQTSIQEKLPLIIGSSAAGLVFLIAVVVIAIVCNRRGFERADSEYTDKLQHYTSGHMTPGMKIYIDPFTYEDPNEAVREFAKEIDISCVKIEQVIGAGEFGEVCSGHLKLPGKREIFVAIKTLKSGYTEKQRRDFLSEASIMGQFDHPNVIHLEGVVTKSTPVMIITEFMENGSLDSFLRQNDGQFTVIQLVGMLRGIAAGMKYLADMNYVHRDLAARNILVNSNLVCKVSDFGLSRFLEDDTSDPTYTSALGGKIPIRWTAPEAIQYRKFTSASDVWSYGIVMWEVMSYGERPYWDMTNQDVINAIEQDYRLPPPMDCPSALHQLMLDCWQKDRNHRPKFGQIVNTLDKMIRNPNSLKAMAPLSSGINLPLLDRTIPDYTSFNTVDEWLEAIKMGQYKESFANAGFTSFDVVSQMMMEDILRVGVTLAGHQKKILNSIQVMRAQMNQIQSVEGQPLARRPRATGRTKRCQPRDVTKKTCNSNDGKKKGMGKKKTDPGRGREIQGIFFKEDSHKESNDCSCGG
The experiment in a line: Inhibition of EPHB2 (unknown origin) at 10 uM after 120 mins P33 radiolabeled kinase activity assay.

Experiment [2] deals with T2, Serine/threonine-protein kinase D2 (Homo sapiens) (UniProt Q9BZL6).
T2 sequence (whole entry): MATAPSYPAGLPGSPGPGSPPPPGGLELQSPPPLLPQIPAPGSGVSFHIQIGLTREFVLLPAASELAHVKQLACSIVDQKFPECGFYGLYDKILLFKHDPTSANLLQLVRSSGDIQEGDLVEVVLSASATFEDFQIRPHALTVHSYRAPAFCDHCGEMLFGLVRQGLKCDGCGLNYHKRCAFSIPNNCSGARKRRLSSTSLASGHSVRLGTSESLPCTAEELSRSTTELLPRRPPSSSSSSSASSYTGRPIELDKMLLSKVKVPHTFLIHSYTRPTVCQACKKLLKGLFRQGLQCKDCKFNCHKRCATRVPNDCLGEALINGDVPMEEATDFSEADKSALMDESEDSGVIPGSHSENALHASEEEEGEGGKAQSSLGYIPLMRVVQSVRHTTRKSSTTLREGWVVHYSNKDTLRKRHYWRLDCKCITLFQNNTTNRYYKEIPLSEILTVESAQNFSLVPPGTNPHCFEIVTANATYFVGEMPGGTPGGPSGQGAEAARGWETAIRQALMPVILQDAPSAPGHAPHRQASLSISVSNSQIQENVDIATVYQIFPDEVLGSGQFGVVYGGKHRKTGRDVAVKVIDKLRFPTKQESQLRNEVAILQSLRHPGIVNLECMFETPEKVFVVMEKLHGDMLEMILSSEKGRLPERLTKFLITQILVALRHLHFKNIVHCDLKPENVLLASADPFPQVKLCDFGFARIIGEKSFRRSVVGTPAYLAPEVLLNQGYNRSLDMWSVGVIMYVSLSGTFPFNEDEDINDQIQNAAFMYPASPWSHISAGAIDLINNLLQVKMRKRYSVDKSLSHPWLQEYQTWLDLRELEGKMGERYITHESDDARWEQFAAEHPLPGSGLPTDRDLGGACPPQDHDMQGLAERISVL
The experiment in a line: Inhibition of PKD2 (unknown origin) at 10 uM after 120 mins P33 radiolabeled kinase activity assay.

Experiment [3] has as its target T3, Inhibitor of nuclear factor kappa-B kinase subunit beta (Homo sapiens) (UniProt O14920).
T3 sequence (whole entry): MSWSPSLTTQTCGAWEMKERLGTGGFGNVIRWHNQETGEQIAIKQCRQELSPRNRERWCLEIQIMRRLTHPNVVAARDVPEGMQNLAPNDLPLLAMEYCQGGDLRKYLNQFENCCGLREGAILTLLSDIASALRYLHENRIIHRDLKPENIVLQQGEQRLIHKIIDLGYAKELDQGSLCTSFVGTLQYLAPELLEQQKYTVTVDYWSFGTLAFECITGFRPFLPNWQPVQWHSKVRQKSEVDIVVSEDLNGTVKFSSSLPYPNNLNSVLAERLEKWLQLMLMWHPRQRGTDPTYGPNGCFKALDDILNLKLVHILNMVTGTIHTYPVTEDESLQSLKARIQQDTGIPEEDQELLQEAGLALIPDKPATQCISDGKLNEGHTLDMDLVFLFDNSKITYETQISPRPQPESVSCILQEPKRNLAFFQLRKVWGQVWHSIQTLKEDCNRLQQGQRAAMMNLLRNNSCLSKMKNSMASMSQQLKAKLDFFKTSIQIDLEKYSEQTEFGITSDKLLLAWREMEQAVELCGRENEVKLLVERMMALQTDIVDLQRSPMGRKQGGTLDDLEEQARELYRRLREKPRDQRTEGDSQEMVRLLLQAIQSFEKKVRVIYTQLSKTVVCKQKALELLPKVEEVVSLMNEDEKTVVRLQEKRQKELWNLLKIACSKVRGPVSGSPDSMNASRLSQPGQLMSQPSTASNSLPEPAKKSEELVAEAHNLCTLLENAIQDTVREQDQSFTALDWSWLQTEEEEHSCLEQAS
The experiment in a line: Inhibition of IKKbeta (unknown origin) at 10 uM after 120 mins P33 radiolabeled kinase activity assay.

For `COCCNC(=O)c1ccc2c(c1)nc(-c1cnc(-c3ccc(Cl)cc3)[nH]1)n2CCOC`, the inhibition in experiment [1] is 20.3%; in experiment [2] it was 19.8%; in experiment [3] it was -5.88%.
The like results for `CC(C)(C)c1cc(NC(=O)Nc2ccc(Oc3ccncc3)cc2)no1` were, in that order, 97.7%, 21.2% and -0.16%.
For `CS(=O)(=O)c1cccc(Nc2nccc(-c3sc(N4CCOCC4)nc3-c3cccc(NS(=O)(=O)c4c(F)cccc4F)c3)n2)c1`, the inhibition in experiment [1] worked out at 74.9%; in experiment [2], 102%; in experiment [3], 1.51%.

As usually defined, the inhibition is the drop in the measured response relative to a control, in per cent.
